Test results: US20020086278A1, “CHROMOGENIC MEDIA CONTAINING BLOOD OR HEMIN” (priority 1999, published 2002)
Where two headings read alike, the source gives them in different places.

Key:
Assay type in all cases: cell-based
[1] = system: Streptococcus pneumoniae 6303; assay: Example 1: growth and colony color on plates surface-spread with chromogen
[2] = system: Aeromonas hydrophilia (aehy); assay: Example 3: colony color on chromogenic TSA II with 5% sheep blood (chromogen in medium); conditions: for Colony Color: CO2
[3] = system: Branhamella catarrhalis (brca); assay: as above; conditions: for Colony Color: CO2
[4] = system: Citrobacter freundii (cifr); assay: as above; conditions: for Colony Color: CO2
[5] = system: Entercoccus faecalis (enfa); assay: as above
[6] = system: E. faecium (enfu); assay: as above; conditions: for Colony Color: enfu 49032
[7] = system: Klebsiella pneumoniae (klpn); assay: as above
[8] = system: Pseudomonas aeruginosa (psae); assay: as above; conditions: for Colony Color: CO2
[9] = system: Salmonella spp. (sasp); conditions: for Colony Color: CO2
[10] = system: Serratia marcescens (sema); assay: Example 3: colony color on chromogenic TSA II with 5% sheep blood (chromogen in medium); conditions: for Colony Color: sema 13880, CO2
[11] = system: Streptococcus agalactiae (stag); assay: as above
[12] = system: Staphylococcus aureus (stau); assay: as above
[13] = system: Staphylococcus Coag Neg (step); assay: as above; conditions: for Colony Color on Various Chromogenic TSA II with 5% Sheep Blood: 18 h
[14] = system: S. milleri (stmi); assay: as above
[15] = system: S. pneumoniae (stpn); assay: as above; conditions: for Colony Color on Various Chromogenic TSA II with 5% Sheep Blood: 18 h
[16] = system: S pyogenes (stpy); assay: as above; conditions: for Colony Color: 21 h; for Colony Color on Various Chromogenic TSA II with 5% Sheep Blood: 18 h
[17] = system: milu 9341; assay: as above
[18] = chromogenic TSA II with 5% Sheep Blood, 0.1 g/l, 3 strains tested
[19] = chromogenic TSA II with 5% Sheep Blood, 0.1 g/l, 2 strains tested
[20] = chromogenic TSA II with 5% Sheep Blood, 0.1 g/l, 6 strains tested
[21] = chromogenic TSA II with 5% Sheep Blood, 0.1 g/l, 1 strain tested
[22] = chromogenic TSA II with 5% Sheep Blood, 0.1 g/l

CC(=O)N[C@H]1[C@H](Oc2c[nH]c3ccc(Br)c(Cl)c23)O[C@H](CO)[C@H](O)[C@@H]1O [X-Acglmn, 5-Br-4-Cl-3-indolyl-N-Acetyl-β-D-galactosaminide]
Substrates Producing Color ([1]; Summary of Table I, S. pneumoniae 6303): X-Acglmn (TSA II | Color ([1]; TSA II 5SB, S. pneu: 6303): blue | Colony Color ([2]; aehy 7965, 18 h): db | Colony Color ([2]; aehy 7965, 21 h): gb | Colony Color ([2]; aehy 7966, 18 h): db | Colony Color ([2]; aehy 7966, 21 h): gb | Colony Color ([2]; aehy 49847, 18 h): db | Colony Color ([2]; aehy 49847, 21 h): gb | Colony Color (Summary) [2, 18]: + | Colony Color ([3]; brca 25238, 18 h): 0 | Colony Color ([3]; brca 25238, 21 h): 0 | Colony Color ([3]; brca 25240, 21 h): 0 | Colony Color (Summary) [3, 19]: 0 | Colony Color (Summary) [4, 19]: 0 | Colony Color ([4]; cifr 8454, 18 h): 0 | Colony Color ([4]; cifr 8454, 21 h): 0 | Colony Color ([4]; cifr 33128, 18 h): 0 | Colony Color ([4]; cifr 33128, 21 h): 0 | Colony Color (Summary) [5, 20]: + | Colony Color ([5]; enfa 597, CO2, 18 h): db | Colony Color ([5]; enfa 597, CO2, 21 h): db | Colony Color ([5]; enfa 10741, CO2, 18 h): db | Colony Color ([5]; enfa 10741, CO2, 21 h): db | Colony Color ([5]; enfa 12953, CO2, 18 h): db | Colony Color ([5]; enfa 12953, CO2, 21 h): db | Colony Color ([5]; enfa 14506, CO2, 18 h): db | Colony Color ([5]; enfa 14506, CO2, 21 h): db | Colony Color ([5]; enfa 29212, CO2, 18 h): db | Colony Color ([5]; enfa 29212, CO2, 21 h): db | Colony Color ([5]; enfa 29212, CO2, 24 h): db | Colony Color ([5]; enfa 29212, air, 24 h): db | Colony Color (Summary) [6, 21]: + | Colony Color ([6]; CO2, 18 h): lb | Colony Color ([6]; CO2, 21 h): db | Colony Color ([6]; air, 21 h): lb | Colony Color (Summary) [7, 18]: 0 | Colony Color ([7]; klpn 13883, CO2, 18 h): 0 | Colony Color ([7]; klpn 13883, CO2, 21 h): 0 | Colony Color ([7]; klpn 33495, CO2, 18 h): vlgb | Colony Color ([7]; klpn 33495, CO2, 24 h): 0 | Colony Color ([7]; klpn 33495, air, 24 h): 0 | Colony Color ([7]; klpn 33606, CO2, 18 h): 0 | Colony Color ([7]; klpn 33606, CO2, 21 h): 0 | Colony Color (Summary) [8, 18]: 0 | Colony Color ([8]; psae 9027, 18 h): 0 | Colony Color ([8]; psae 9027, 21 h): 0 | Colony Color ([8]; psae 15442, 18 h): 0 | Colony Color ([8]; psae 15442, 21 h): 0 | Colony Color ([8]; psae 33607, 18 h): 0 | Colony Color ([8]; psae 33607, 21 h): 0 | Colony Color (Summary) [9, 19]: 0 | Colony Color ([9]; saty 19430, 18 h): 0 | Colony Color ([9]; saty 19430, 21 h): 0 | Colony Color ([9]; satym 14028, 18 h): 0 | Colony Color ([9]; satym 14028, 21 h): 0 | Colony Color (Summary) [10, 21]: + | Colony Color ([10]; 18 h): gb | Colony Color ([10]; 21 h): gb | Colony Color (Summary) [11, 18]: 0 | Colony Color ([11]; stag 4768, CO2, 21 h): 0 | Colony Color ([11]; stag 4768, air, 21 h): 0 | Colony Color ([11]; stag 12386, CO2, 21 h): 0 | Colony Color ([11]; stag 12386, CO2, 24 h): 0 | Colony Color ([11]; stag 12386, air, 24 h): 0 | Colony Color (Summary) ([12]; chromogenic TSA II with 5% Sheep Blood, 0.1 g/l, 5 strains tested): 0 | Colony Color ([12]; stau 1006, CO2, 21 h): 0 | Colony Color ([12]; stau 1007, CO2, 21 h): 0 | Colony Color ([12]; stau 1008, CO2, 21 h): 0 | Colony Color ([12]; stau 1009, CO2, 21 h): 0 | Colony Color ([12]; stau 25923, CO2, 18 h): 0 | Colony Color ([12]; stau 25923, CO2, 24 h): 0 | Colony Color ([12]; stau 25923, air, 24 h): 0 | Colony Color on Various Chromogenic TSA II with 5% Sheep Blood ([12]; stau t006, CO2, 18 h): 0 | Colony Color on Various Chromogenic TSA II with 5% Sheep Blood ([12]; stau t007, CO2, 18 h): 0 | Colony Color on Various Chromogenic TSA II with 5% Sheep Blood ([12]; stau t008, CO2, 18 h): 0 | Colony Color on Various Chromogenic TSA II with 5% Sheep Blood ([12]; stau t009, CO2, 18 h): 0 | Colony Color ([13]; one S. epidermidis): blue | Colony Color on Various Chromogenic TSA II with 5% Sheep Blood ([13]; step 12228, CO2): 0 | Colony Color ([13]; step 12228, CO2, 21 h): 0 | Colony Color ([13]; step 12228, air, 21 h): 0 | Colony Color on Various Chromogenic TSA II with 5% Sheep Blood ([13]; step cdc1, CO2): 0 | Colony Color ([13]; step cdc1, CO2, 21 h): 0 | Colony Color ([13]; step cdc1, air, 21 h): 0 | Colony Color ([13]; step cdc2, CO2, 21 h): 0 | Colony Color ([13]; step cdc2, air, 21 h): 0 | Colony Color ([13]; step cdc3, CO2, 21 h): 0 | Colony Color ([13]; step cdc3, air, 21 h): 1b | Colony Color on Various Chromogenic TSA II with 5% Sheep Blood ([13]; step cdc4, CO2): 0 | Colony Color ([13]; step cdc4, CO2, 21 h): 0 | Colony Color ([13]; step cdc4, air, 21 h): 0 | Colony Color on Various Chromogenic TSA II with 5% Sheep Blood ([13]; stha cdc2, CO2): 0 | Colony Color on Various Chromogenic TSA II with 5% Sheep Blood ([13]; stsa cdc3, CO2): 0 | Growth vs. control [14, 22]: <grth | Colony Color (Summary) [14, 19]: 0 | Colony Color on Various Chromogenic TSA II with 5% Sheep Blood ([14]; stmi 6242, CO2, 18 h): 0 | Colony Color ([14]; stmi 6249, air, 21 h): 0 | Growth vs. control [15, 22]: <grth | Colony Color (Summary) [15, 20]: 0 | Colony Color ([15]; stpn 1259, CO2, 21 h): 0 | Colony Color ([15]; stpn 1260, CO2, 21 h): 0 | Colony Color ([15]; stpn 1331, CO2, 21 h): 0 | Colony Color ([15]; stpn 1628, CO2, 21 h): 0 | Colony Color ([15]; stpn 6303, CO2, 24 h): 0 | Colony Color ([15]; stpn 6303, air, 24 h): 0 | Colony Color ([15]; stpn 6305, CO2, 24 h): 0 | Colony Color ([15]; stpn 6305, air, 24 h): 0 | Colony Color on Various Chromogenic TSA II with 5% Sheep Blood ([15]; stpn t259, CO2): 0 | Colony Color on Various Chromogenic TSA II with 5% Sheep Blood ([15]; stpn t260, CO2): 0 | Colony Color on Various Chromogenic TSA II with 5% Sheep Blood ([15]; stpn t331, CO2): drkr < muc | Colony Color on Various Chromogenic TSA II with 5% Sheep Blood ([15]; stpn t628, CO2): 0 | Growth vs. control [16, 22]: <grth | Colony Color (Summary) [16, 20]: 0 | Colony Color ([16]; stpy 1027, CO2): 0 | Colony Color ([16]; stpy 1028, CO2): 0 | Colony Color ([16]; stpy 1029, CO2): 0 | Colony Color ([16]; stpy 1030, CO2): 0 | Colony Color ([16]; stpy 19615, CO2): 0 | Colony Color ([16]; stpy 19615, air): 0 | Colony Color ([16]; stpy 49117, CO2): 0 | Colony Color ([16]; stpy 49117, air): 0 | Colony Color on Various Chromogenic TSA II with 5% Sheep Blood ([16]; stpy 51339, CO2): 0 | Colony Color ([16]; stpy 51339, CO2): 0 | Colony Color ([16]; stpy 51339, air): 0 | Colony Color on Various Chromogenic TSA II with 5% Sheep Blood ([16]; stpy t027, CO2): 0 | Colony Color on Various Chromogenic TSA II with 5% Sheep Blood ([16]; stpy t028, CO2): 0 | Colony Color on Various Chromogenic TSA II with 5% Sheep Blood ([16]; stpy t029, CO2): 0 | Colony Color on Various Chromogenic TSA II with 5% Sheep Blood ([16]; stpy t030, CO2): 0 | Colony Color ([17]; CO2, 18 h): ly | Colony Color ([17]; CO2, 21 h): 0
